Patent publication US4258046A, “Pyrano-heterocycles and medicaments containing these compounds” (Hoechst Aktiengesellschaft, priority 1978, dated 1981)
Where a name gives a salt, the structure may show the parent alone.

Tests used:
[1] = tested on: passive cutaneous anaphylaxis (PCA) in rats; experiment: Inhibition of passive cutaneous anaphylaxis (PCA) in rats on oral treatment; assay type: in vivo, Sprague-Dawley rats
Description: The compounds of the invention of the formula I and their salts have strong antiallergic properties and are well tolerated on intravenous as well as oral administration in the models of passive cutaneous anaphylaxis (P C A) to rats.
(§1) According to the method described by J. Goose and A. M. J. N. Blair, Immunology 16, 749 (1969) a P C A is made ready on Sprague-Dawley rats by intracutaneous administration of homologous antiserum, 0.1 ml of a dilution of 1:16 and 1:32 in both flanks. The antiserum is directed against ovalbumine and is induced in rats by combined administration of ovalbumine with Bordetella pertussis as adjuvant and boostering with Nippostrongylus larvae. 72 hours after the intracutaneous administration of the antiserum, the intravenous injection of the antigen consisting of a mixture of each time 25 mg/kg of ovalbumine and Evans blue is effected, in order to trigger the cutaneous anaphylactic reaction. The compounds of the formula I or their salts are administered, if intravenously, directly before the injection of the ovalbumine-dyestuff mixture and if administered orally, 30 minutes before the administration of the ovalbumine-dyestuff mixture. 10 Minutes after the ovalbumine-dyestuff injection, the animals are sacrificed and the diameter of spreading of the dyestuff is measured in the hypodermis.
(§2) As comparative substance, the standard preparation di- sodium-chromoglycate(DSCG) is used.

[2] = tested on: passive cutaneous anaphylaxis (PCA) in rats; experiment: Inhibition of passive cutaneous anaphylaxis (PCA) in rats on intravenous treatment; assay type: in vivo, Sprague-Dawley rats; conditions: i.v., antiserum dilution 1:16
Description: as §1, with “The” for “According to the method described by J. Goose and A. M. J. N. Blair, Immunology 16, 749 (1969) a P C A is made ready on Sprague-Dawley rats by intracutaneous administration of homologous antiserum, 0.1 ml of a dilution of 1:16 and 1:32 in both flanks. The”
as §2

[3] = 10.0 mg/kg, antiserum dilution 1:16
[4] = 10.0 mg/kg, antiserum dilution 1:32

Compound | % Inhibition against control ([2]; 0.1 mg/kg) | % Inhibition against control ([2]; 0.3 mg/kg) | % Inhibition against control ([2]; 1.0 mg/kg) | % Inhibition against control ([2]; 3.0 mg/kg) | % Inhibition against control ([2]; 0.03 mg/kg) | further results
O=C(O)c1cc(=O)c2c(OCC(O)COc3cccc4oc(C(=O)O)cc(=O)c34)cccc2o1 [DSCG, di- sodium-chromoglycate, reference compound] | 9% | 34% | 71% | – | – | activity when administered orally [1]: orally inactive; % Inhibition against control [1, 3]: 0%; % Inhibition against control [1, 4]: 0%; % Inhibition against control ([1]; 30.0 mg/kg, antiserum dilution 1:16): 5%; % Inhibition against control ([1]; 30.0 mg/kg, antiserum dilution 1:32): 0%
O=c1oc2c(c(O)c1[N+](=O)[O-])c(=O)n1c3c(cc(Cl)cc23)CCC1 [Example 24, 11-Chloro-7,8-dihydro-3-nitro-2,5-dioxo-2H,5H,9H-benzo-[ij]pyrano[2,3-b]quinolizine-4-ol-sodium salt] | 12% | 50% | 89% | 100% | – | % Inhibition against control ([1]; 0.3 mg/kg, antiserum dilution 1:16): 22%; % Inhibition against control ([1]; 0.3 mg/kg, antiserum dilution 1:32): 27%; % Inhibition against control ([1]; 1.0 mg/kg, antiserum dilution 1:16): 50%; % Inhibition against control ([1]; 1.0 mg/kg, antiserum dilution 1:32): 73%; % Inhibition against control ([1]; 3.0 mg/kg, antiserum dilution 1:16): 44%; % Inhibition against control ([1]; 3.0 mg/kg, antiserum dilution 1:32): 73%; % Inhibition against control [1, 3]: 44%; % Inhibition against control [1, 4]: 73%
Cn1c(=O)c2c(O)c([N+](=O)[O-])c(=O)oc2c2cc(Cl)ccc21 [Example 25, 9-Chloro-5,6-dihydro-6-methyl-3-nitro-2,5-dioxo-2H-pyrano[3,2-c]quinoline-4-ol] | 100% | – | – | – | 67% | % Inhibition against control ([2]; 0.01 mg/kg): 44%
CCn1c(=O)c2c(O)c([N+](=O)[O-])c(=O)oc2c2cc(Cl)ccc21 [Example 30, 6-Ethyl-9-chloro-5,6-dihydro-3-nitro-2,5-dioxo-2H-pyrano[3,2-c]-quinoline-4-ol] | 88% | 100% | – | – | 50% | –
CCn1c(=O)c2c(O)c([N+](=O)[O-])c(=O)oc2c2cc(F)ccc21.[Na] [Example 31, 6-Ethyl-9-fluoro-5,6-dihydro-3-nitro-2,5-dioxo-2H-pyrano[3,2-c]quinoline-4-ol-sodium salt] | 80% | 87% | – | 100% | 60% | % Inhibition against control ([2]; 0.01 mg/kg): 27%
CCn1c(=O)c2c(O)c([N+](=O)[O-])c(=O)oc2c2cc(C(F)(F)F)ccc21 [Example 32, 6-Ethyl-5,6-dihydro-3-nitro-2,5-dioxo-9-trifluoromethyl-2H-pyrano[3,2-c]quinoline-4-ol] | 69% | 75% | – | 100% | 19% | –
CCn1c(=O)c2c(O)c([N+](=O)[O-])c(=O)oc2c2cc(Cl)c(Cl)cc21 [Example 35, 6-Ethyl-8,9-dichloro-5,6-dihydro-3-nitro-2,5-dioxo-2H-pyrano[3,2-c]quinoline-4-ol] | 20% | 53% | 73% | – | – | % Inhibition against control ([2]; 30.0 mg/kg): 100%
